Several values for one entry are separate records, joined by “and”; a condition that tells them apart may be missing. Equal entries are not always repeated. Where two headings read alike, the source gives them in different places.
How the values were obtained:
[1] = Relaxivity of O2 toward 129Xe and T1 estimates derived from it; assay type: physicochemical; conditions: for T1: absence of other relaxers
Source text: It is known that ^129Xe, which has a long longitudinal relaxation time in the gas phase, can be relaxed by magnetic dipole-dipole interaction and/or Fermi-Contact interaction with the unpaired electron spins of dioxygen. (Reference 18). The solubility of Xenon (and also of dioxygen) in water is low. Due to the low sensitivity of the ^129Xe signal, the time required for determining the relaxivity of O2 toward ^129Xe with a series of T1 determinations over a range of O2 concentrations in water would be prohibitively long.
The relaxivity of O2 toward ^129Xe has been measured in only one liquid, i.e., octanol, which models an amphipathic membrane lipid. (Reference 17). The observed relaxivity, 0.029 s^−1mM^−1, is about three times larger than that estimated from previous reports for gas-phase relaxation, i.e., (Reference 18), 0.0087 s^−1mM^−1, as might be expected for encounters in the condensed phase. The dioxygen relaxivity for ^129Xe is constant over the concentration range studied, and thus 1/T1 will be a linear function of O2 concentration over the entire physiological range (0-0.2 atm, 0-0.2 mM). This translates into a T1 value of 18 s in air-saturated lipid, and 80 s in anaerobic lipid, in the absence of other relaxers. This is the first reported value for the O2 relaxivity toward ^129Xe in a condensed phase. T2values over these O2 concentrations have been determined to range from 0.5 to 5.0 s. […] In fact, given the relative inefficiency of the known non-paramagnetic relaxation mechanisms, it is suspected that T1 in many tissues will not fall below seconds or even tens of seconds.
This estimate of T1≈38 s for ^129Xe dissolved in rat blood at 293° K is very encouraging. […] One can also estimate T1 values for other model systems. The T1 of ^129Xe in water has been measured at 300° K to be 130 s. […] While the actual values of T1 in each tissue must be, and remain to be, determined, it is expected that the minimum value will fall above 15 s, a duration sufficient to enable significant accumulation of polarized ^129Xe in major tissues. […]

[2] = cited from earlier work
[3] = cited from earlier work; remark: listed apart in the source
[4] = dissolved in rat blood, 293° K, data obtained over 12 hr; cited from earlier work
[5] = brain, cited from earlier work
[6] = inhaled, mouse; cited from earlier work
[7] = 30° C., 0.5 atm, cited from earlier work
[8] = inhaled, humans; cited from earlier work
[9] = cited from earlier work; remark: listed apart in the source
[10] = myoglobin (aqueous Fe(III) metmyoglobin)

[129Xe] [^129Xe, Xenon-129]
T1 ([1]; air-saturated lipid): 18 s | T1 ([1]; anaerobic lipid): 80 s | estimated T1 ([1]; fully oxygenated membranes): > 15 s | T2 ([2]; octanol, over O2 concentrations 0-0.2 atm): 0.5 to 5.0 s | T1 ([3]; 10% Fe(III) metMb): 0.005 s | T1 ([3]; benzene, 9.4 T and 300° K, Diehl and Jokisaari): 155.0 ± 6.2 s | T1 ([3]; benzene, 300° K): 160 s and 160.5 s | T1 ([3]; benzene, Moschos and Reisse): 240 s | T2 ([3]; benzene): 0.88 s | T1 [3, 10]: 0.0052 s | T2 [3, 10]: 0.00057 s | T1 ([3]; octanol): 80 s and 78.5 s | T2 ([3]; octanol): 5.3 s | T2 ([3]; pure gas phase, 1 atm): ≦56 hrs | T1 ([3]; pure gas phase, practically): at least 3000 s | T1 ([3]; water): 130 s and 131.3 s | T2 ([3]; water): 5.3 s | T1 [4]: 38 s and ≈ 38 s

[Xe] [Xenon]
steady-state concentration bound to proteins ([5]; 0.5-1.0 atm lung Xenon): 1 to 5 mM | steady-state concentration in the membrane bilayers ([5]; 0.5-1.0 atm lung Xenon): 5 to 10 mM | steady-state concentration in water ([5]; 0.5-1.0 atm lung Xenon): 2 to 4 mM | solubility in white matter versus gray matter [5]: approximately twice as soluble in white matter as in gray matter | time to reach a steady state with the entire blood volume (one blood circuit) [6]: about 1 s | solubility of Xenon in octanol ([7]; octanol): 48 mM | solubility of Xenon in water ([7]; water): 2.4 mM | time to reach a steady state with the entire blood volume (one blood circuit) [8]: about 18 s | metabolism ([9]; by the body): not metabolized by the body | period of recovery from the exhaled breath ([9]; human subjects): ~20 min

O=O [O2, dioxygen]
relaxivity of O2 toward 129Xe ([2]; gas phase, estimated from previous reports): 0.0087 s⁻¹ mM⁻¹ | relaxivity of O2 toward 129Xe ([2]; octanol, 300° K): 0.029 s⁻¹ mM⁻¹
